Results from patent publication US7601743B2, “Cyano anthranilamide insecticides” (Syngenta Crop Protection, Inc., priority 2005, dated 2009).

Columns and labels:
Type in all cases: in vivo
[1] = system: Heliothis virescens; experiment: Activity against Heliothis virescens (foliar application); conditions: 144 h, 400 ppm spray on young soya plants, 1st instar, 6 days, read-out: percentage reduction in the population and in the feeding damage (% activity)
Method: Young soya plants are sprayed with an aqueous emulsion spray mixture comprising 400 ppm of active ingredient and, after the spray coating has dried on, populated with 10 caterpillars (1st instar) of Heliothis virescens and introduced into a plastic container. 6 days later, the percentage reduction in the population and in the feeding damage (% activity) are determined by comparing the number of dead caterpillars and the feeding damage between the treated and untreated plants.

[2] = system: Spodoptera littoralis; experiment: Activity against Spodoptera littoralis (sprayed soya plants); conditions: 72 h, 400 ppm spray on young soya plants, 1st instar, 3 days, read-out: percentage reduction in the population and in the feeding damage (% activity)
Method: Young soya plants are sprayed with an aqueous emulsion spray mixture comprising 400 ppm of active ingredient and, after the spray coating has dried on, populated with 10 caterpillars (1st instar) of Spodoptera littoralis and introduced into a plastic container. 3 days later, the percentage reduction in the population and in the feeding damage (% activity) are determined by comparing the number of dead caterpillars and the feeding damage between the treated and untreated plants.

[3] = system: Diabrotica balteata; experiment: Activity against Diabrotica balteata (sprayed maize seedlings); conditions: 144 h, 400 ppm spray on maize seedlings, 2nd instar larvae, 6 days, read-out: percentage reduction in the population (% activity)
Method: Maize seedlings are sprayed with an aqueous emulsion spray mixture comprising 400 ppm of active ingredient and, after the spray coating has dried on, populated with 10 larvae (2nd instar) of Diabrotica balteata and introduced into a plastic container. 6 days later, the percentage reduction in the population (% activity) is determined by comparing the number of dead larvae between the treated and untreated plants.

[4] = system: Plutella xylostella; experiment: Activity against Plutella xylostella; conditions: 72 h, 400 ppm spray on young cabbage plants, 3rd instar, 3 days, read-out: percentage reduction in the population and in the feeding damage (% activity)
Method: Young cabbage plants are sprayed with an aqueous emulsion spray mixture comprising 400 ppm of active ingredient and, after the spray coating has dried on, populated with 10 caterpillars (3rd instar) of Plutella xylostella and introduced into a plastic container. 3 days later, the percentage reduction in the population and in the feeding damage (% activity) are determined by comparing the number of dead caterpillars and the feeding damage between the treated and untreated plants.

Measured: inhibition at 400 ppm

Cc1cc(C#N)cc(C(=O)NC2(C3CC3)CC2)c1NC(=O)c1cc(C(F)(F)F)nn1-c1ncccc1Cl [A.1.1, 2-(3-Chloro-pyridin-2-yl)-5-trifluoromethyl-2H-pyrazole-3-carboxylic acid [2-(bicyclopropyl-1-ylcarbamoyl)-4-cyano-6-methyl-phenyl]-amide]
> 80%: all assays above
